Test results taken from patent publication US6004957A, “Sulfonamide inhibitors of aspartyl protease” (Vertex Pharmaceuticals, Incorporated, priority 1998, dated 1999).

System: HIVIIIb in CCRM-CEM cells
Experiment: Anti-viral potency in CCRM-CEM cells acutely infected with HIVIIIb (method of Meek et al.), extracellular p24 antigen
Format: cell-based, HIV-1
Settings: HIV replication, Table VIII, read-out: IC90 Range
Excerpt: As discussed above, the novel compounds of the present invention are excellent ligands for aspartyl proteases, particularly HIV-1 and HIV-2 proteases. Accordingly, these compounds are capable of targeting and inhibiting late stage events in HIV replication, i.e., the processing of the viral polyproteins by HIV encoded proteases. […] Because aspartyl protease is essential for the production of mature virions, inhibition of that processing effectively blocks the spread of virus by inhibiting the production of infectious virions, particularly from chronically infected cells. […] Other anti-viral assays have confirmed the potency of these compounds.
Compounds of formula I were tested for their antiviral potency in several virological assays. In the first assay, the compounds were added as a solution in dimethylsulfoxide (DMSO) to a test cell culture of CCRM-CEM cells, a strain of CD4^+ human T-cell lymphoma cells, previously acutely infected with HIVIIIb using standard protocols (see Meek, T. D. et al., "Inhibition of HIV-1 protease in infected T-lymphocytes by synthetic peptide analogues", Nature, 343, p. 90 (1990). Preferred compounds are those which are able to inhibit 90% of viral infectivity at a concentration of 1 μM or less. More preferred compounds are those which are able to inhibit 90% of viral infectivity at a concentration of 100 nM or less.
The effect of the compounds on inhibiting the replication of the virus was measured by determining the HIV extracellular p24 antigen concentration using a commercial enzyme immunoassay (obtained from Coulter Corporation, Hialeah, Fla.).

Compound | IC90 [µM]
(S)-N-1-(3-((3-Acetylamino-4-fluoro-benzenesulfonyl)-benzyl-amino)-(1S,2 syn)-1-benzyl-2-hydroxy-propyl)-2-((quinoline-2-carbonyl)-amino)-succinamide and (S)-N-1-(3-((4-Acetylamino-3-fluoro-benzenesulfonyl)-benzyl-amino)-(1S,2 syn)-1-benzyl-2-hydroxy-propyl)-2-((quinoline-2-carbonyl)-amino)-succinamide [Compound 2] | 0.101 to 1

Same assay, conditions: Human immunodeficiency virus 1, HIV replication, Table VIII, read-out: IC90 Range

Compound | IC90 [µM]
COC(=O)N[C@@H](Cc1ccccc1)[C@H](O)CN(CC(C)C)S(=O)(=O)c1ccc(Cl)c(Cl)c1 [Compound 103] | 1 to 10
CC(C)CN(C[C@@H](O)[C@H](Cc1ccccc1)NC(=O)OC[C@@H]1COC(=O)N1)S(=O)(=O)c1ccc(F)cc1 [Compound 109, 4-Fluoro-N-(2-(syn)-hydroxy-3-((2-oxazolidon-(S)-4-yl)-methoxycarbonylamino)-4-(S)-phenyl-butyl)-N-isobutyl-benzenesulfonamide] | 0.101 to 1
CC(C)CN(C[C@@H](O)[C@H](Cc1ccccc1)NC(=O)[C@H](CC(N)=O)NC(=O)c1ccc2ccccc2n1)S(=O)(=O)c1cc(S(=O)(=O)c2ccccc2)cs1 [Compound 13, (S)-N-1-(3-((4-Benzenesulfonyl-thiophene-2-sulfonyl)-isobutyl-amino)-(1S,2 syn)-1-benzyl-2-hydroxy-propyl)-2-((quinoline-2-carbonyl)-amino)-succinamide] | < 0.1
COc1ccc(S(=O)(=O)N(CC2CCCC2)C[C@@H](O)[C@H](CC2CCCCC2)NC(=O)O[C@H]2CCOC2)cc1 [Compound 195, N-((2 syn,3S)-4-Cyclohexyl-2-hydroxy-3-((S)-tetrahydrofuran-3-yloxycarbonylamino)-butyl)-N-cyclopentylmethyl-4-methoxy-benzenesulfonamide] | < 0.1
CC(=O)Nc1ccc(S(=O)(=O)N(CC(C)C)C[C@@H](O)[C@H](Cc2ccccc2)NC(=O)OC2CCOC2)cc1 (stereo partly drawn) [Compound 86, N-(4-(((2 syn,3S)-2-Hydroxy-4-phenyl-3-((R)-tetrahydrofuran-3-yloxycarbonylamino)-butyl)-isobutyl-sulfamoyl-phenyl)-acetamide and N-(4-(((2 syn,3S)-2-Hydroxy-4-phenyl-3-((S)-tetrahydrofuran-3-yloxycarbonylamino)-butyl)-isobutyl-sulfamoyl)-phenyl)-acetamide] | 0.101 to 1
O=C(N[C@@H](Cc1ccccc1)[C@H](O)CN(CC1CCCC1)S(=O)(=O)c1ccc(OC(F)(F)F)cc1)O[C@H]1CCOC1 [Compound 151] | 1 to 10
CC[C@H](C)[C@H](NC(=O)c1cnc2ccccc2n1)C(=O)N[C@@H](Cc1ccccc1)[C@H](O)CN(CC(C)C)S(=O)(=O)c1ccc(F)c(NC(C)=O)c1 [Compound 188] | 1 to 10
C=C(C)CN(C[C@@H](O)[C@H](Cc1ccccc1)NC(=O)O[C@H]1CCOC1)S(=O)(=O)c1ccc(F)cc1 [Compound 135] | 1 to 10
CC(=O)Nc1ccc(S(=O)(=O)N(CC(C)C)C[C@@H](O)[C@H](Cc2ccccc2)NC(=O)O[C@@H]2CCOC2)cc1 [Compound 94, N-(4-(((syn)-2-Hydroxy-(S)-4-phenyl-3-((tetrahydro-furan-(R)-3-yl)-oxycarbonylamino)-butyl)-isobutyl-sulfamoyl)-phenyl)-acetamide] | 0.101 to 1
CC(C)CN(C[C@@H](O)[C@H](Cc1ccccc1)NC(=O)OC(C)(C)C)S(=O)(=O)c1ccc(F)cc1F [Compound 49] | 1 to 10
O=C(N[C@@H](Cc1ccccc1)[C@H](O)CN(CC1CCCC1)S(=O)(=O)c1ccc(Cl)cc1)O[C@H]1CCOC1 [Compound 116, 4-Chloro-N-cyclopentylmethyl-N-((2 syn,3S)-2-hydroxy-4-phenyl-3-((S)-tetrahydrofuran-3-yloxycarbonylamino)-butyl)-benzenesulfonamide] | < 0.1
COc1ccc(S(=O)(=O)N(CC(C)C)C[C@@H](O)[C@H](Cc2ccccc2)NC(=O)O[C@H]2CCOC2)cc1 [Compound 100, N-((2 syn,3S)-2-Hydroxy-4-phenyl-3-((S)-tetrahydrofuran-3-yloxycarbonylamino)-butyl)-N-isobutyl-4-methoxy-benzenesulfonamide] | < 0.1
O=C(N[C@@H](Cc1ccccc1)[C@H](O)CN(CC1CCCC1)S(=O)(=O)c1ccc(Cl)c(Cl)c1)O[C@H]1CCOC1 [Compound 183, 3,4-Dichloro-N-cyclopentylmethyl-N-((2 syn,3S)-2-hydroxy-4-phenyl-3-((S)-tetrahydrofuran-3-yloxycarbonylamino)-butyl)-benzenesulfonamide] | 0.101 to 1
CC(C)CN(C[C@@H](O)[C@H](Cc1ccccc1)NC(=O)[C@H](CC(N)=O)NC(=O)c1ccc2ccccc2n1)S(=O)(=O)N(C)C [Compound 21, N-1-((1S-2 syn)-1-Benzyl-2-hydroxy-3-(1-isobutyl-3,3-dimethylsulfonylurea)-propyl)-2-((quinoline-2-carbonyl)-amino)-succinamide] | < 0.1
CC(C)CN(C[C@@H](O)[C@H](Cc1ccccc1)NC(=O)OC(C)(C)C)S(=O)(=O)c1ccc2nonc2c1 [Compound 64] | 1 to 10
CC(=O)Nc1ccc(S(=O)(=O)N(CC2CCCC2)C[C@@H](O)[C@H](Cc2ccccc2)NC(=O)OCc2cccnc2)cc1 [Compound 147, N-(4-(Cyclopentylmethyl-((2 syn,3S)-2-hydroxy-4-phenyl-3-(pyridin-3-yl-methoxycarbonylamino)-butyl)-sulfamoyl)-phenyl)-acetamide] | 0.101 to 1
C=CCOC(=O)N[C@@H](Cc1ccccc1)[C@H](O)CN(CC1CCCC1)S(=O)(=O)c1ccc2c(c1)CCN2C(C)=O [Compound 156] | 0.101 to 1
CC(=O)Nc1ccc(S(=O)(=O)N(CC(C)C)C[C@@H](O)[C@H](Cc2ccccc2)NC(=O)OC(C)C)cc1 [Compound 29] | 1 to 10
C=CCOC(=O)N[C@@H](Cc1ccccc1)[C@H](O)CN(CC(C)C)S(=O)(=O)c1ccc(Cl)c(Cl)c1 [Compound 81] | 1 to 10
C=CCOC(=O)N[C@@H](Cc1ccccc1)[C@H](O)CN(CC1CCCC1)S(=O)(=O)c1ccc(OC)cc1 [Compound 141, N-((3-allyloxycarbonylamino)-(2 syn,3S)-2-hydroxy-4-phenyl-butyl)-N-cyclopentylmethyl-4-methoxy-benzenesulfonamide] | 0.101 to 1
CC(C)CN(C[C@@H](O)[C@H](Cc1ccccc1)NC(=O)O[C@H]1CCOC1)S(=O)(=O)c1ccc(O)cc1 [Compound 175] | < 0.1
CC(C)CN(C[C@@H](O)[C@H](Cc1ccccc1)NC(=O)O[C@H]1CCOC1)S(=O)(=O)c1cccc(Cl)c1 [Compound 138, 3-Chloro-N-((2 syn,3S)-2-hydroxy-4-phenyl-3-((S)-tetrahydrofuran-3-yloxycarbonylamino)-butyl)-N-isobutyl-benzenesulfonamide] | 0.101 to 1
CC(C)CN(C[C@@H](O)[C@H](Cc1ccccc1)NC(=O)O[C@H]1CCOC1)S(=O)(=O)N1CCCCC1 [Compound 150, Piperidine-1-sulfonic acid ((2 syn,3S)-2-hydroxy-4-phenyl-3-((S)-tetrahydrofuran-3-yloxycarbonylamino)-butyl)-isobutyl-amide] | 0.101 to 1
CC(=O)Nc1cc(S(=O)(=O)N(CC(C)C)C[C@@H](O)[C@H](Cc2ccccc2)NC(=O)O[C@H]2CCOC2)ccc1F [Compound 88, N-(2-Fluoro-5-(((2 syn,3S)-2-hydroxy-4-phenyl-3-((S)-tetrahydrofuran-3-yloxycarbonylamino)-butyl)-isobutyl-sulfamoyl)-phenyl)-acetamide] | 0.101 to 1
COc1ccc(S(=O)(=O)N(CC2CCCCC2)C[C@@H](O)[C@H](Cc2ccccc2)NC(=O)O[C@H]2CCOC2)cc1 [Compound 158, N-Cyclohexylmethyl-N-((2 syn,3S)-2-hydroxy-4-phenyl-3-((S)-tetrahydrofuran-3-yloxycarbonylamino)-butyl)-4-methoxy-benzenesulfonamide] | < 0.1
O=C1N[C@H](COC(=O)N[C@@H](Cc2ccccc2)[C@H](O)CN(CC2CCCC2)S(=O)(=O)c2ccc(Cl)cc2)CO1 [Compound 139, 4Chloro-N-cyclopentylmethyl-N-(2-(syn)-hydroxy-3-((2-oxazolidon-4-(S)-yl-methyl)-oxycarbonylamino)-4-phenyl-butyl)-benzenesulfonamide] | 0.101 to 1
CC(C)CN(C[C@@H](O)[C@H](Cc1ccccc1)NC(=O)O[C@H]1CCOC1)S(=O)(=O)c1ccc([N+](=O)[O-])cc1 [Compound 167, N-((2 syn,3S)-2-Hydroxy-4-phenyl-3-((S)-tetrahydrofuran-3-yloxycarbonylamino)-butyl)-N-isobutyl-4-nitro-benzenesulfonamide] | 0.101 to 1
CC(C)CN(C[C@@H](O)[C@H](Cc1ccccc1)NC(=O)OC(C)(C)C)S(=O)(=O)c1ccc(F)cc1 [Compound 32] | 1 to 10
CC(C)CN(C[C@@H](O)[C@H](Cc1ccccc1)NC(=O)[C@H](CC(N)=O)NC(=O)c1ccc2ccccc2n1)S(=O)(=O)c1ccc(F)cc1 [Compound 14, (S)-N-1-(1-(S)-Benzyl-3-((4-fluoro-benzenesulfonyl)-isobutyl-amino)-2-(syn)-hydroxy-propyl)-2-((quinoline-2-carbonyl)-amino)-succinamide] | < 0.1
